In patent publication US10280156B2, “Heteroaromatic chalcone derivatives and their medical use” (Medizinische Universität Wien, priority 2014, dated 2019):

Key:
[1] = test system: MEC1; assay: Viability test (CellTiter-Blue/EZ4U) on MEC1 cells, 48 h; assay type: cell-based, human; conditions: 48 h incubation, nd = no significant cytotoxic activity up to 100 μM
Method: (§1) JURKAT and CCRF-CEM (T-cell acute lymphoblastic leukemia), HL60 and K562 representing acute and chronic myeloid leukemia, respectively, the chronic lymphocytic leukemia cell line MEC-1, and the diffuse large B-cell lymphoma cell line U-2940 were cultured in Gibco RPMI 1640+GlutaMAX (Life Technologies, Carlsbad, Calif., USA) supplemented with 10% fetal bovine serum gold (FBS gold; PAA Laboratories, Pasching, Austria) and 1% PenStrep (100 U/ml penicillin and 100 μg/ml streptomycin; PAA Laboratories), and maintained at 37° C. in humidified atmosphere with 5% CO2. The diffuse large B-cell lymphoma cell line OCI-LY7 was cultured in Gibco IMDM+GlutaMAX and 25 mM HEPES (Life Technologies) containing 20% FBS gold and 1% PenStrep.
(§2) All experiments with hematological cell lines were done using phenol red-free RPMI 1640+L-glutamine (PAA Laboratories) supplemented with 1% PenStrep and 10% FBS gold, except experiments with OCI-Ly7 which were carried out in Gibco IMEM+GlutaMAX and 25 mM HEPES containing 20% FBS gold and 1% PenStrep. Cells were incubated in triplicates with increasing concentrations of the compounds for 48 h, changes in viability were determined using the cell proliferation and cytotoxicity assays EZ4U (Biomedica Group, Austria) and CellTiter-Blue Cell Viability Assay (Promega, Madison, Wis., USA) following instructions of the manufacturers. IC50 values were calculated from two independent experiments using GraphPad Prism 5 software.
(§3) Initially, compounds were biologically tested in six concentration steps (0.1 μM; 1 μM; 5 μM; 10 μM; 50 μM; and 100 μM) using the CellTiter-Blue Cell Viability Assay (Promega, Madison, Wis., USA) and an incubation time of 48 hours. […] IC50 values were calculated from at least two independent experiments with 3 replicates each. In order to evaluate the biologic activity of the new compounds, cytotoxicity was compared to that of fludarabine, an already approved drug for the treatment of various B-cell malignancies. […] Differences in IC50 values for the different cell types can be explained by the biological and genetic particularities of each subtype of B-cell Non-Hodgkin lymphoma (Stacchini A et al. Leukemia Res 1999, 23, 127-136; Sambade C et al. Int J Cancer 2006, 118, 555-563; Chang H et al. Leukemia lymphoma 1995, 19, 165-171; Tweeddale M E et al. Blood 1987, 69, 1307-1314; Tweeddale M et al. Blood 1989, 74, 572-578).

[2] = test system: U-2940; assay: Viability test on U-2940 cells, 48 h; assay type: cell-based, human; conditions: 48 h incubation, nd = no significant cytotoxic activity up to 100 μM
Method: as §1, §2, §3

[3] = test system: OCI-Ly7; assay: Viability test on OCI-Ly7 cells, 48 h; assay type: cell-based, human; conditions: 48 h incubation, nd = no significant cytotoxic activity up to 100 μM
Method: as §1, §2, §3

[4] = test system: M2-10B4; assay: Viability test on mouse fibroblast cell line M2-10B4, 48 h; assay type: cell-based; conditions: for IC50: Mus musculus, M210B4, 48 h, 48 h incubation, mouse fibroblast cell line; for cytotoxic potential on M2-10B4 (in words): mouse fibroblasts
Method: as §2
Structurally seen, the small molecule compound 1 represents a typical chalcone scaffold. It is characterized by an ortho-ethoxy-substituted phenyl part as ring A and a 2-naphthyl moiety symbolizing ring B. The focus of the present study was to guide the systematic identification of a growth inhibitor with specificity to neoplastic cells, as cytotoxicity towards healthy cells is mostly associated with adverse effects, which can be related to morbidity and mortality of the patient (Milligan D W et al. Brit J Haematol 2006, 135, 450-474). To discriminate in vitro between structural elements necessary for potent cytotoxicity towards tumor cells which, at the same time, clearly show less activity on normal cells, the compounds were additionally tested on the murine bone marrow fibroblast cell line M2-10B4. This cell line is regularly used as feeder layer when cultured with patient cells providing additional support and survival signals in particular in drug screens (Kurtova A V et al. Blood 2009, 114, 4441-4450).
as §3

Row | Structure (SMILES) | melting point [°C] | IC50 ([1]; Homo sapiens, MEC1, 48 h) [µM] | IC50 ([2]; Homo sapiens, U-2940, 48 h) [µM] | IC50 ([3]; Homo sapiens, OCI-Ly7, 48 h) [µM] | IC50 [4] [µM] | cytotoxic potential on M2-10B4 (in words) [4] | IC50 [1] [µM] | IC50 [2] [µM] | IC50 [3] [µM]
1 | COc1ccccc1C(=O)/C=C/c1ccc2ccccc2c1 [Compound 2, 1-(2-Methoxyphenyl)-3-(2-naphthyl)-2-propen-1-one] |  | 0.43 | 4.09 | 0.46 | 41.8 |  |  |  | 
2 | CCCOc1ccccc1C(=O)/C=C/c1ccc2ccccc2c1 [Compound 3, 3-(2-Naphthyl)-1-(2-propoxyphenyl)-2-propen-1-one] |  | 0.13 | 5.31 | 0.1 | > 100 |  |  |  | 
3 | CCCCOc1ccccc1C(=O)/C=C/c1ccc2ccccc2c1 [Compound 4, 1-(2-Butoxyphenyl)-3-(2-naphthyl)-2-propen-1-one] |  | 0.7 | 5.31 | 0.12 | > 100 |  |  |  | 
4 | Cc1ccccc1C(=O)/C=C/c1ccc2ccccc2c1 [Compound 6, 1-(2-Methylphenyl)-3-(2-naphthyl)-2-propen-1-one] |  | 6.36 | 10.3 | 4.92 | 72 |  |  |  | 
5 | CCOc1ccccc1C(=O)/C=C/c1ccc2cc(OC)ccc2c1 [Compound 7, 1-(2-Ethoxyphenyl)-3-(6-methoxy-2-naphthyl)-2-propen-1-one] |  | 7.16 | 24.7 | 1.01 | > 100 | no cytotoxic potential |  |  | 
6 | C=Cc1cccc(/C=C/C(=O)c2ccccc2OCC)c1 [Compound 8, 3-(3-Ethenylphenyl)-1-(2-ethoxyphenyl)-2-propen-1-one] |  | 0.2 | 2.5 | 0.5 | > 100 | did not show any activity |  |  | 
7 | CCOc1ccccc1C(=O)/C=C/c1c2ccccc2cc2ccccc12 [Compound 11, 3-(9-Anthranyl)-1-(2-ethoxyphenyl)-2-propen-1-one] |  | > 50 | > 50 | > 50 | > 50 |  | > 100 | > 100 | > 100
8 | CCOc1ccccc1C(=O)/C=C/c1cc2ccccc2c2ccccc12 [Compound 12, 1-(2-Ethoxyphenyl)-3-(9-phenanthrenyl)-2-propen-1-one] | 117 to 120 | 1.63 | 39.9 |  | > 100 |  |  |  | 
9 | CCOc1ccccc1C(=O)/C=C/c1csc2ccccc12 [Compound 14, 3-(1-Benzothien-3-yl)-1-(2-ethoxyphenyl)-2-propen-1-one] |  | 0.17 | 0.86 | 0.1 | 8.2 |  |  |  | 
10 | CCOc1cccc(C(=O)/C=C/c2ccc3ccccc3c2)c1 [Compound 16, 3-(2-Napthyl)-1-(3-ethoxyphenyl)-2-propen-1-one] | 97 to 100 | 2.85 | 16.2 | 1.76 |  |  |  |  | 
11 | CCOc1ccc(C(=O)/C=C/c2ccc3ccccc3c2)cc1 [Compound 17, 3-(2-Napthyl)-1-(4-ethoxyphenyl)-2-propen-1-one] | 159 to 161 |  |  |  |  |  |  |  | 
12 | CCOc1cccc(C(=O)/C=C/c2csc3ccccc23)c1 [Compound 18, 3-(1-Benzothien-3-yl)-1-(3-ethoxyphenyl)-2-propen-1-one] | 103 to 106 | 2.21 | 7.59 | 1.67 |  |  |  |  | 
13 | CCOc1ccc(C(=O)/C=C/c2csc3ccccc23)cc1 [Compound 19, 3-(1-Benzothien-3-yl)-1-(4-ethoxyphenyl)-2-propen-1-one] | 129 to 130 | 7.5 | 14.6 | 4.77 |  |  |  |  | 
14 | CCOc1cccc(C(=O)/C=C/c2cc3ccccc3[nH]2)c1 [Compound 20, 1-(3-Ethoxyphenyl)-3-(1H-indole-2-yl)-2-propen-1-one] | 156 to 158 | 3.33 |  | 4.83 |  |  |  |  | 
15 | CCOc1ccccc1C(=O)/C=C/c1ccc(-c2cccs2)s1 [Compound 30, (E)-3-(2,2′-bithiophen-5-yl)-1-(2-ethoxyphenyl)-2-propen-1-one] |  | 0.02 | 3.13 | 0.02 |  |  |  |  | 
16 | CCOc1cccc(C(=O)/C=C/c2ccc3c(c2)OCO3)c1 [Compound 34, (E)-3-(1,3-benzodioxol-5-yl)-1-(3-ethoxyphenyl)prop-2-en-1-one] |  | 8.73 | 18.8 | 6.35 |  |  |  |  | 

Now from value to compound, other results behind:

Row | melting point [°C] | Structure (SMILES) | IC50 ([1]; Homo sapiens, MEC1, 48 h) [µM] | IC50 ([2]; Homo sapiens, U-2940, 48 h) [µM] | IC50 ([3]; Homo sapiens, OCI-Ly7, 48 h) [µM] | IC50 [4] [µM] | cytotoxic potential on M2-10B4 (in words) [4] | IC50 [1] [µM] | IC50 [2] [µM] | IC50 [3] [µM]
17 | 178 to 181 | CCOc1ccc(C(=O)/C=C/c2cc3ccccc3[nH]2)cc1 [Compound 21, 1-(4-Ethoxyphenyl)-3-(1H-indole-2-yl)-2-propen-1-one] |  |  | 25.3 |  |  |  |  | 
18 | 151 to 153 | CCOc1ccccc1C(=O)/C=C/c1ccc2[nH]ccc2c1 [Compound 22, (E)-1-(2-Ethoxyphenyl)-3-(1H-indol-5-yl)-2-propen-1-one] | 0.05 | 1.71 | 0.03 |  |  |  |  | 
19 | 121 to 123 | CCOc1cccc(C(=O)/C=C/c2ccc3[nH]ccc3c2)c1 [Compound 23, (E)-1-(3-Ethoxyphenyl)-3-(1H-indol-5-yl)-2-propen-1-one] | 2.6 | 10 | 1.47 |  |  |  |  | 
20 | 171 to 173 | CCOc1ccc(C(=O)/C=C/c2ccc3[nH]ccc3c2)cc1 [Compound 24, (E)-1-(4-Ethoxyphenyl)-3-(1H-indol-5-yl)-2-propen-1-one] | 26.6 | 50 | 15.9 |  |  |  |  | 
21 | 114 to 116 | CCCOc1ccccc1C(=O)/C=C/c1ccc2[nH]ccc2c1 [Compound 25, (E)-3-(1H-indol-5-yl)-1-(2-propoxyphenyl)-2-propen-1-one] | 0.14 | 7.1 | 0.12 |  |  |  |  | 
22 | 112 to 114 | CCCOc1ccccc1C(=O)/C=C/c1cc2ccccc2[nH]1 [Compound 26, (E)-3-(1H-indol-2-yl)-1-(2-propoxyphenyl)-2-propen-1-one] | 0.04 | 10.1 | 0.08 |  |  |  |  | 
23 | 95 to 98 | CCOc1ccccc1C(=O)/C=C/c1cc2ccccc2s1 [Compound 27, (E)-3-(1-Benzothiophen-2-yl)-1-(2-ethoxyphenyl)-2-propen-1-one] | 0.06 | 2.31 | 0.07 |  |  |  |  | 
24 | 98 to 99 | CCOc1cccc(C(=O)/C=C/c2ccc3sccc3c2)c1 [Compound 28] | 5.48 | 12.9 | 4.78 |  |  |  |  | 
25 | 149 to 151 | CCOc1ccc(C(=O)/C=C/c2ccc3sccc3c2)cc1 [Compound 29] | 231 |  |  |  |  |  |  | 
26 | 79 to 81 | CCOc1ccccc1C(=O)/C=C/c1cc2ccccc2o1 [Compound 31, (E)-3-(1-Benzofuran-2-yl)-1-(2-ethoxyphenyl)-2-propen-1-one] | 0.2 | 7.1 | 0.05 |  |  |  |  | 
27 | 127 to 129 | CCOc1cccc(C(=O)/C=C/c2cc3ccccc3o2)c1 [Compound 32, (E)-3-(1-Benzofuran-2-yl)-1-(3-ethoxyphenyl)-2-propen-1-one] | 6.91 | 44.3 | 16.7 |  |  |  |  | 
28 | 100 to 101 | CCOc1ccc(C(=O)/C=C/c2cc3ccccc3o2)cc1 [Compound 33, (E)-3-(1-Benzofuran-2-yl)-1-(4-ethoxyphenyl)-2-propen-1-one] | 38.8 | 42.2 | 19.5 |  |  |  |  | 
